Experimental data: patent US20100184683A1, “ANTIBACTERIAL AND ANTIFUNGAL PEPTIDES” (C3 JIAN, INC., priority 2009, published 2010)
≈ marks a conversion by molar mass, not a printed value. Peptide text beside a SMILES is read from it.

System: B. subtilis
Assay: not given
Type: cell-based, Bacillus subtilis
Settings: not given
Protocol: (§1) In certain embodiments the MIC assays are performed as described herein in the Examples. For each organism, the media and growth conditions utilized is detailed in Table 8.
(§2) In certain embodiments the MIC assays are performed as follows: For each organism, the media and growth conditions utilized is detailed in Table 8.

Row | Compound | MIC [µM]
1 | CC[C@H](C)[C@H](NC(=O)CN)C(=O)N[C@H](C(=O)N[C@@H](CC(C)C)C(=O)N[C@H](C(=O)NCC(=O)N[C@@H](CC(C)C)C(=O)N[C@@H](CCCCN)C(=O)N[C@@H](CC(C)C)C(=O)N[C@H](C(=O)N1CCC[C@H]1C(=O)N[C@@H](CC(C)C)C(=O)N[C@@H](CC(C)C)C(=O)N[C@@H](C)C(=O)N[C@@H](CC(N)=O)C(=O)N[C@H](C(=O)N[C@@H](CC(C)C)C(=O)N[C@@H](CCCNC(=N)N)C(=O)O)C(C)C)[C@@H](C)CC)[C@@H](C)CC)C(C)C [PF-322] (H-GIVLIGLKLIPLLANVLR-OH; N-terminus and C-terminus assumed) | 50 (≈ 95.8 µg/mL)
2 | CC[C@H](C)[C@H](NC(=O)[C@H](Cc1ccccc1)NC(=O)[C@@H](NC(=O)[C@H](Cc1ccccc1)NC(=O)[C@H](CC(C)C)NC(=O)[C@H](CC(=O)O)NC(=O)[C@@H](NC(=O)[C@H](CS)NC(=O)[C@@H](NC(=O)[C@H](CCCNC(=N)N)NC(=O)[C@H](CC(C)C)NC(=O)[C@@H](NC(=O)[C@@H](N)CC(C)C)C(C)C)[C@@H](C)CC)[C@@H](C)O)[C@@H](C)O)C(=O)N[C@@H](CCCCN)C(=O)N[C@@H](Cc1c[nH]c2ccccc12)C(=O)N[C@H](C(=O)N[C@H](C(=O)N[C@@H](CCCCN)C(=O)N[C@@H](CCC(N)=O)C(=O)N[C@@H](CCCNC(=N)N)C(=O)N[C@@H](CCCCN)C(=O)N[C@@H](CO)C(=O)O)[C@@H](C)CC)[C@@H](C)O [PF-497] (H-LVLRICTDLFTFIKWTIKQRKS-OH; N-terminus and C-terminus assumed) | 50 (≈ 136 µg/mL)
3 | CC[C@H](C)[C@H](NC(=O)[C@H](CCCNC(=N)N)NC(=O)[C@H](CCCCN)NC(=O)[C@H](CCCCN)NC(=O)[C@H](CCSC)NC(=O)[C@H](CO)NC(=O)[C@H](CC(C)C)NC(=O)[C@H](CC(C)C)NC(=O)[C@H](CCCCN)NC(=O)[C@H](CCCNC(=N)N)NC(=O)[C@@H](NC(=O)[C@@H](NC(=O)[C@@H](NC(=O)[C@H](CC(C)C)NC(=O)[C@@H](NC(=O)[C@H](Cc1ccc(O)cc1)NC(=O)[C@H](CC(C)C)NC(=O)[C@H](Cc1ccccc1)NC(=O)[C@H](CO)NC(=O)[C@H](Cc1ccc(O)cc1)NC(=O)[C@@H](N)C(C)C)C(C)C)C(C)C)[C@@H](C)CC)C(C)C)C(=O)N[C@@H](CCC(=O)O)C(=O)N[C@@H](CCCNC(=N)N)C(=O)N[C@@H](CC(C)C)C(=O)O [PF-499] (H-VYSFLYVLVIVRKLLSMKKRIERL-OH; N-terminus and C-terminus assumed) | 50 (≈ 148 µg/mL)

System: S. pneumoniae
Assay: not given
Type: cell-based, Streptococcus pneumoniae
Settings: not given
Protocol: as §1, §2

Row | Compound | MIC [µM]
4 | CC(C)C[C@H](NC(=O)[C@H](CCCCN)NC(=O)CNC(=O)[C@@H](N)CS)C(=O)N[C@@H](CC(C)C)C(=O)N[C@@H](CCC(=O)O)C(=O)N[C@@H](CCC(N)=O)C(=O)N[C@@H](CCCCN)C(=O)N[C@@H](CC(N)=O)C(=O)N[C@@H](Cc1ccccc1)C(=O)N[C@@H](Cc1ccccc1)C(=O)N[C@@H](CC(C)C)C(=O)N[C@@H](CCCCN)C(=O)N[C@H](C(=O)N[C@@H](CCCNC(=N)N)C(=O)O)[C@@H](C)O [PF-521] (H-CGKLLEQKNFFLKTR-OH; N-terminus and C-terminus assumed) | 50 (≈ 91.3 µg/mL)
5 | CC(C)C[C@H](NC(=O)[C@H](CC(C)C)NC(=O)[C@H](Cc1c[nH]cn1)NC(=O)[C@H](CC(N)=O)NC(=O)[C@H](CCCCN)NC(=O)[C@H](CC(C)C)NC(=O)[C@H](CO)NC(=O)[C@H](CCCNC(=N)N)NC(=O)[C@H](CO)NC(=O)[C@H](C)NC(=O)[C@H](CCC(N)=O)NC(=O)[C@H](CCCCN)NC(=O)[C@H](CO)NC(=O)[C@H](C)NC(=O)[C@H](CCC(N)=O)NC(=O)[C@H](CCCCN)NC(=O)[C@H](CO)NC(=O)[C@H](C)NC(=O)[C@H](CCC(N)=O)NC(=O)[C@H](CCCCN)NC(=O)[C@H](CO)NC(=O)[C@H](C)NC(=O)[C@H](CCC(N)=O)NC(=O)[C@H](CCCCN)NC(=O)[C@H](CO)NC(=O)[C@H](C)NC(=O)[C@H](CCC(N)=O)NC(=O)[C@H](CCCCN)NC(=O)[C@H](CO)NC(=O)[C@H](C)N)C(=O)O [PF-523] (H-ASKQASKQASKQASKQASKQASRSLKNHLL-OH; N-terminus and C-terminus assumed) | 50 (≈ 161 µg/mL)
6 | CC[C@H](C)[C@H](NC(=O)[C@H](CCCNC(=N)N)NC(=O)[C@H](CO)NC(=O)[C@H](CC(C)C)NC(=O)[C@H](C)NC(=O)[C@H](C)NC(=O)[C@H](CC(C)C)NC(=O)[C@@H](NC(=O)[C@@H]1CCCN1C(=O)[C@H](CCCCN)NC(=O)[C@H](Cc1c[nH]cn1)NC(=O)[C@H](Cc1ccc(O)cc1)NC(=O)[C@H](CS)NC(=O)[C@@H](NC(=O)[C@H](CCCNC(=N)N)NC(=O)[C@@H]1CCCN1C(=O)[C@H](C)NC(=O)[C@H](CC(=O)O)NC(=O)[C@@H]1CCCN1)[C@@H](C)O)[C@@H](C)CC)C(=O)N[C@H](C(=O)N[C@H](C(=O)N[C@H](C(=O)N[C@@H](CC(=O)O)C(=O)N[C@@H](CCCNC(=N)N)C(=O)O)[C@@H](C)O)C(C)C)C(C)C [PF-524] (H-PDAPRTCYHKPILAALSRIVVTDR-OH; N-terminus and C-terminus assumed) | 50 (≈ 135 µg/mL)
7 | CC[C@H](C)[C@H](NC(=O)[C@@H](NC(=O)[C@@H](NC(=O)[C@@H]1CCCN1C(=O)[C@@H](NC(=O)[C@H](CCC(=O)O)NC(=O)[C@H](CC(=O)O)NC(=O)[C@H](CC(=O)O)NC(=O)[C@H](CC(=O)O)NC(=O)[C@H](CCC(N)=O)NC(=O)[C@H](Cc1ccccc1)NC(=O)[C@H](CC(=O)O)NC(=O)[C@H](CCC(=O)O)NC(=O)[C@@H](NC(=O)[C@H](CCC(=O)O)NC(=O)[C@H](CCC(=O)O)NC(=O)CNC(=O)[C@@H](NC(=O)[C@H](Cc1ccccc1)NC(=O)[C@@H]1CCCN1C(=O)[C@H](CCCCN)NC(=O)[C@H](CCC(N)=O)NC(=O)[C@@H](N)Cc1ccccc1)[C@@H](C)O)C(C)C)[C@@H](C)CC)[C@@H](C)O)[C@@H](C)CC)C(=O)O [PF-437] (H-FQKPFTGEEVEDFQDDDEIPTII-OH; N-terminus and C-terminus assumed) | 50 (≈ 136 µg/mL)

Same assay, conditions: S. pneumoniae; TSB supplemented with 5% yeast extract, 37° C., 10% CO2; inoculum 10^6 CFU/ml; 18-24 h or 48 h

Row | Compound | MIC [µM]
8 | CC[C@H](C)[C@H](NC(=O)[C@H](CCC(=O)O)NC(=O)[C@@H]1CCCN1C(=O)[C@H](CCSC)NC(=O)[C@H](Cc1ccccc1)NC(=O)[C@@H](N)CO)C(=O)N[C@@H](CCC(N)=O)C(=O)N[C@@H](CCCCN)C(=O)N[C@@H](CC(N)=O)C(=O)N[C@H](C(=O)N[C@H](C(=O)N1CCC[C@H]1C(=O)N[C@H](C(=O)N[C@@H](CCC(N)=O)C(=O)N[C@@H](CCSC)C(=O)N[C@@H](CCCCN)C(=O)O)[C@@H](C)O)[C@@H](C)CC)[C@@H](C)O [PF-512] (H-SFMPEIQKNTIPTQMK-OH; N-terminus and C-terminus assumed) | 50 (≈ 94.7 µg/mL)
9 | CC[C@H](C)[C@H](NC(=O)[C@H](CC(C)C)NC(=O)[C@@H]1CCCN1C(=O)[C@@H]1CCCN1C(=O)[C@H](CCCCN)NC(=O)[C@@H](NC(=O)[C@H](Cc1ccc(O)cc1)NC(=O)[C@H](CC(C)C)NC(=O)[C@H](CO)NC(=O)[C@H](CCC(N)=O)NC(=O)[C@H](CCSC)NC(=O)[C@@H](N)C(C)C)C(C)C)C(=O)N[C@@H](CC(C)C)C(=O)N[C@H](C(=O)N[C@H](C(=O)N[C@@H](CCCCN)C(=O)N[C@@H](CC(C)C)C(=O)N[C@@H](C)C(=O)N[C@@H](CCC(N)=O)C(=O)N[C@@H](CCC(N)=O)C(=O)N[C@@H](CC(N)=O)C(=O)O)[C@@H](C)O)C(C)C [PF-511] (H-VMQSLYVKPPLILVTKLAQQN-OH; N-terminus and C-terminus assumed) | 50 (≈ 119 µg/mL)
10 | LGLTAGVAYAAQPTNQPTNQPTNQPTNQPTNQPTNQPRW [PF-520] | 50

System: Candida albicans
Assay: Binding of targeting peptides to Candida albicans
Settings: tested at 3.13, 6.25, 12.5 and 25.0 μM in 1× PBS or HEPES/NaCl/MgCl2/0.1% CTAB
Protocol: The peptides in Table 6 were tested for binding efficiency at 3.13, 6.25, 12.5 and 25.0 μM concentrations in 1× phosphate-buffered saline or 20 mM HEPES (4-(2-hydroxyethyl)-1-piperazineethanesulfonic acid), 150 mM sodium chloride, 1 mM magnesium chloride and 0.1% CTAB.

Row | Compound | Target(s): form of Candida albicans bound
11 | MPKARPVNHNKKKSKITIKSNFTLFYMFNP [PF-634] | hyphae
12 | GGTKEIVYQRG [1T-68] | yeast cells
13 | RLTSNQFLTRITPFVFAQH [PF-176] | yeast cells
14 | RLARGRPTNLCGRRG [PF-170] | yeast cells
15 | SKFELVNYASGCSCGADCKCASETECKCASKK [PF-761] | hyphae
16 | NILFGIIGFVVAMTAAVIVTAISIAK [PF-543] | hyphae
17 | LVRLA (NILFGIIGFVVAMTAAVIVTAISIAK; Antimicrobial peptide and/or targeting peptide) [PF-636] | hyphae
18 | KLRSASKKSLQEKSCGIMPEKPAG [PF-206] | hyphae
19 | EILNNNQVIKELTMKYKTQFESNLGGWTARARR [PF-580] | hyphae
20 | DLRKAK (VVRRFQGM; Antimicrobial peptide and/or targeting peptide) [PF-024] | hyphae
21 | VYRHLRFIDGKLVEIRLERK [1T-36] | hyphae
22 | VVRRFQGM [PF-141] | hyphae
23 | HSSHL (HARAAVGVAELPRGAAVEVELIAAVRP; Antimicrobial peptide and/or targeting peptide) [PF-060] | hyphae
24 | EVYSSPTNNVAITVQNN [PF-178] | hyphae
25 | AIEGVIKKGACFKLLRHEMF [PF-167] | yeast cells
26 | NRQAQGERAHGEQQG [1T-70] | yeast cells
27 | MIHLTKQNTMEALHFIKQFYDMFFILNFNV [PF-040] | hyphae
28 | GVGIGFIMMGVVGYAVKLVHIPIRYLIV [PF-770] | hyphae
29 | HARAAVGVAELPRGAAVEVELIAAVRP [1T-65] | hyphae
30 | RFFNFEIKKSTKVDYVFAHVDLSDV [PF-051] | hyphae
